Tests used:
Experiment in all cases: relative viability (nuclei count vs DMSO), 5 days (fraction); higher = more cells survive
[1] = compound: COC1=CC=C(C=C1)CN2C=CC3=C2C=C(C=C3)C(=O)NO + Cc1nc(Nc2ncc(C(=O)Nc3c(C)cccc3Cl)s2)cc(N2CCN(CCO)CC2)n1 [Dasatinib] (partner 0.075 µM)
Method in brief: (§1)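 Lung cancer cell lines were seeded in 1536-well plates and dosed by pin tool the next day, with either a single drug or a fixed anchor-drug dose combined with five library-drug doses (not always all listed) spaced in √10 steps. Five days later, one step fixed the cells and stained their nuclei (final 0.05% Triton X-100, 1% formaldehyde, 1 ug/ml Hoechst), and nuclei were counted on 4× images. Relative viability is the nuclei count in treated wells divided by the count in vehicle wells, and each value is the median of duplicate plates.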

[2] = compound: C[C@]1(c2nc3c(C(N)=O)cccc3[nH]2)CCCN1 [Veliparib] + CC(=O)Nc1cccc(-n2c(=O)n(C3CC3)c(=O)c3c(Nc4ccc(I)cc4F)n(C)c(=O)c(C)c32)c1 [Trametinib] (partner 0.02 µM)
Method in brief: as §1

[3] = compound: C[C@]1(c2nc3c(C(N)=O)cccc3[nH]2)CCCN1 [Veliparib] + COc1cc2c(Oc3ccc(NC(=O)C4(C(=O)Nc5ccc(F)cc5)CC4)cc3F)ccnc2cc1OCCCN1CCOCC1 [Foretinib] (partner 0.25 µM)
Method in brief: as §1

[4] = compound: C[C@]1(c2nc3c(C(N)=O)cccc3[nH]2)CCCN1 [Veliparib] + CS(=O)(=O)N1CCN(Cc2cc3nc(-c4cccc5[nH]ncc45)nc(N4CCOCC4)c3s2)CC1 [Pictilisib] (partner 1 µM)
Method in brief: as §1

Row | Cell Line | relative viability ([1]; first compound 0.08 µM) | relative viability ([1]; first compound 0.253 µM) | relative viability ([1]; first compound 0.8 µM) | relative viability ([1]; first compound 2.53 µM) | relative viability ([1]; first compound 8 µM) | relative viability ([2]; first compound 0.02 µM) | relative viability ([2]; first compound 0.06325 µM) | relative viability ([2]; first compound 0.2 µM) | relative viability ([2]; first compound 0.6325 µM) | relative viability ([2]; first compound 2 µM) | relative viability ([3]; first compound 0.06325 µM) | relative viability ([3]; first compound 0.2 µM) | relative viability ([3]; first compound 0.6325 µM) | relative viability ([3]; first compound 2 µM) | relative viability ([4]; first compound 0.06325 µM) | relative viability ([4]; first compound 0.2 µM) | relative viability ([4]; first compound 0.6325 µM) | relative viability ([4]; first compound 2 µM) | relative viability ([3]; first compound 0.02 µM) | relative viability ([4]; first compound 0.02 µM)
1 | LC-2-ad | 0.407 | 0.633 | 0.582 | 0.677 | 0.349 | 0.897 | 0.904 | 0.914 | 0.891 | 0.912 | 0.894 | 0.903 | 0.837 | 0.939 | 0.431 | 0.428 | 0.464 | 0.497 |  | 
2 | LOU-NH91 | 0.516 | 0.532 | 0.54 | 0.593 | 0.523 | 0.814 | 0.789 | 0.793 | 0.725 | 0.811 | 0.889 | 0.977 | 0.924 | 0.97 | 0.436 | 0.563 | 0.528 | 0.531 | 0.9 | 0.506
3 | NCI-H1623 | 0.389 | 0.487 | 0.517 | 0.525 | 0.418 |  |  |  |  |  | 0.796 | 0.855 | 0.811 | 0.716 |  |  |  |  | 0.639 | 
4 | NCI-H727 | 0.349 | 0.315 | 0.437 | 0.417 | 0.303 | 0.379 | 0.39 | 0.42 | 0.428 | 0.416 | 0.66 | 0.816 | 0.694 | 1.04 | 0.33 | 0.433 | 0.296 | 0.431 | 1.22 | 0.195
5 | NCI-H2347 | 0.248 | 0.246 | 0.337 | 0.329 | 0.325 | 0.294 | 0.254 | 0.26 | 0.364 | 0.288 | 0.545 | 0.763 | 0.802 | 0.844 | 0.612 | 0.668 | 0.707 | 0.724 | 0.977 | 0.666
6 | NCI-H1993 | 0.569 | 0.633 | 0.647 | 0.665 | 0.572 |  | 0.63 | 0.519 | 0.425 | 0.552 | 0.7 | 0.789 | 0.828 | 0.79 | 0.826 | 0.822 | 0.807 | 0.805 | 0.674 | 0.772
7 | HCC-827 | 0.429 | 0.395 | 0.277 | 0.297 | 0.275 | 0.59 | 0.514 | 0.529 | 0.504 | 0.516 | 1.01 | 0.984 | 1.03 | 1.02 | 0.957 | 1.01 | 0.984 | 1.06 | 1.08 | 0.936
8 | NCI-H1975 | 0.342 | 0.413 | 0.447 | 0.359 | 0.325 | 0.339 | 0.335 | 0.329 | 0.344 | 0.331 | 0.96 | 0.903 | 0.881 | 0.979 | 0.283 | 0.336 | 0.282 | 0.287 | 1.12 | 0.292
9 | NCI-H1793 |  | 0.354 | 0.382 | 0.4 | 0.412 | 0.476 | 0.417 | 0.474 | 0.361 | 0.465 | 0.608 | 0.814 | 0.747 | 0.794 | 0.306 | 0.343 | 0.261 | 0.356 | 0.652 | 0.375
10 | NCI-H1651 | 0.311 | 0.452 | 0.43 | 0.358 | 0.331 | 0.844 | 0.836 | 0.785 | 0.77 | 0.8 | 0.74 | 0.762 | 0.724 | 0.692 | 0.601 | 0.559 | 0.457 | 0.558 | 0.793 | 0.572
11 | NCI-H1755 | 0.37 | 0.466 | 0.414 | 0.444 | 0.397 | 0.821 | 0.763 | 0.812 | 0.741 | 0.768 | 0.915 | 0.935 | 0.893 | 0.91 | 0.415 | 0.479 | 0.434 | 0.432 | 0.947 | 0.403
12 | LCLC-103H | 0.553 | 0.506 | 0.62 | 0.539 | 0.392 | 0.764 | 0.606 | 0.668 | 0.74 | 0.718 | 0.711 | 0.95 | 0.701 | 0.767 | 0.615 | 0.577 | 0.666 | 0.651 | 0.712 | 0.685
13 | NCI-H1915 | 0.326 | 0.333 | 0.314 | 0.303 | 0.27 | 0.309 | 0.289 | 0.302 | 0.292 | 0.291 | 0.975 | 1.03 | 0.92 | 0.969 | 0.87 | 0.727 | 0.808 | 0.86 | 1.09 | 0.989
14 | HOP-62 | 0.601 | 0.72 | 0.658 | 0.66 | 0.529 | 0.375 | 0.322 | 0.351 | 0.39 | 0.407 | 0.983 | 0.99 | 1.13 | 1.22 | 0.79 | 0.818 | 0.548 | 0.738 | 1.17 | 0.705
15 | HARA |  | 0.284 | 0.256 | 0.177 | 0.189 | 0.745 |  | 0.949 | 0.796 | 0.798 | 1.06 | 0.866 | 0.851 | 0.828 | 0.49 | 0.244 | 0.398 | 0.415 | 0.898 | 0.498
16 | NCI-H520 | 0.16 | 0.228 | 0.213 | 0.232 | 0.281 | 0.749 | 0.68 | 0.721 | 0.646 | 0.705 | 0.763 | 0.805 | 0.601 | 0.647 | 0.267 | 0.316 | 0.283 | 0.227 | 0.824 | 0.392
